The test system of this test is platelets. Briefly: ADP-induced platelet aggregation in PRP (light transmission aggregometry). Format: cell-based. The conditions noted are these: Homo sapiens, 10 μM ADP, 37° C., read-out: IC50 concentration of free ticagrelor, ADP-induced platelet aggregation. The protocol: (A) PRP was pre-incubated for 10 min with a solution of nanoreservoir containing increasing concentrations of ticagrelor or with free ticagrelor, as indicated. Platelet aggregation was induced by adding 10 μM ADP at 37° C. under stirring conditions (1200 rpm). Percentages of maximum aggregation recorded by light transmission aggregometry are shown. Data represent means±SD (*p<0.05, **p<0.01, ***p<0.001). (B) Maximum platelet aggregation obtained in the presence of different ratios of ticagrelor-loaded nanogels and minocycline-loaded nanogels. NG: nanogel bearing PEG 1500; NGT: ticagrelor-loaded nanogel bearing PEG 1500; NGM: minocycline-loaded nanogel bearing PEG 1500. Data represent means±SD.
Platelet-rich-plasma (PRP) was prepared by centrifugation of citrate anticoagulated human blood at 100×g for 15 min at room temperature. Platelet aggregation experiments were performed on PRP aliquots under stirring (1200 rpm) at 37° C. using light aggregometry (Chrono-Log Model 700 aggregometer, Kordia).
For this purpose, 1 ml of nanogel suspensions loaded with increasing concentrations of ticagrelor was centrifuged at 12000 g for 15 minutes, washed 2 times in PBS and resuspended in 300 μL of PBS. 260 μL of platelet-rich-plasma (PRP) was incubated with 10 μL of purified nanogel suspensions for 10 min. Platelet aggregation was then induced by adding 10 μM ADP at 37° C. under stirring conditions. […]

Converted amounts (≈) assume the structure as drawn.

With `CCCSc1nc(N[C@@H]2C[C@H]2c2ccc(F)c(F)c2)c2nnn([C@@H]3C[C@H](OCCO)[C@@H](O)[C@H]3O)c2n1` [ticagrelor], the IC50 worked out at 1.8 µg/mL (≈ 3.44 µM).

The values above are taken from patent US11541129B2, “Nanoreservoir coated medical devices, biomaterials, and bioprosthetics” (Université de Liège, priority 2016, dated 2023).
